The supplement of paper PMC10307832

Compound: CC1(C)CNc2cc(NC(=O)c3cccnc3NCc3ccncc3)ccc21 [Motesanib] + CC1(C)CCC(c2ccc(Cl)cc2)=C(CN2CCN(c3ccc(C(=O)NS(=O)(=O)c4ccc(N[C@H](CCN5CCOCC5)CSc5ccccc5)c(S(=O)(=O)C(F)(F)F)c4)cc3)CC2)C1 [Navitoclax] (partner 0.5 µM)
Experiment: relative viability (nuclei count vs DMSO), 5 days (fraction); higher = more cells survive
Conditions: first compound 0.01 µM
Procedure, shortened: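 Dosing by pin tool came one day after lung cancer cell lines were seeded in 1536-well plates, using either one drug or a fixed anchor-drug dose plus five library-drug doses (not always all listed) in √10 steps. After 5 days, nuclei were counted on 4× images. Relative viability is treated-well nuclei count divided by vehicle-well nuclei count, and values are medians of duplicate plates.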

Compared with NCI-H727, NCI-H1650 is higher in relative viability: 0.519 for the first, 1.19 for the second.

Going from EBC-1 to NCI-H1703, the relative viability rises from 0.48 to 1.25.

First: NCI-H1993
Second: SW 1573
The relative viability of the first is higher: 1.15 for the first, 0.902 for the second.

First: NCI-H838
Second: NCI-H520
The relative viability of the first is higher: 1.25 for the first, 1.12 for the second.

First: NCI-H2126
Second: EMC-BAC-2
The relative viability of the first is lower: 0.821 for the first, 1.18 for the second.

Going from NCI-H2085 to Calu-6, the relative viability falls from 1.2 to 0.877.

Going from HCC-366 to NCI-H1666, the relative viability rises from 0.917 to 0.947.

First: NCI-H596
Second: LK-2
The relative viability of the first is higher: 0.962 for the first, 0.915 for the second.

Compared with NCI-H2087, SK-MES-1 is higher in relative viability: 0.92 for the first, 1.13 for the second.

Going from H3255 to COR-L23, the relative viability rises from 0.507 to 1.01.

Compared with COR-L 105, IA-LM is lower in relative viability: 1.01 for the first, 0.803 for the second.

Compared with LOU-NH91, NCI-H2170 is lower in relative viability: 0.774 for the first, 0.574 for the second.

Going from HOP-62 to HCC-44, the relative viability falls from 1.12 to 0.986.

Going from A549 to LU99A, the relative viability falls from 1.19 to 0.82.

First: BEN
Second: HARA
The relative viability of the first is lower: 0.0507 for the first, 1.11 for the second.

Going from NCI-H1299 to NCI-H1792, the relative viability falls from 1.06 to 0.612.

Same assay, conditions: first compound 0.03162 µM

Compared with NCI-H727, EBC-1 is higher in relative viability: 0.349 for the first, 0.419 for the second.

Going from NCI-H1703 to NCI-H1993, the relative viability falls from 1.05 to 0.882.

First: SW 1573
Second: NCI-H838
The relative viability of the first is lower: 0.994 for the first, 1.21 for the second.

First: NCI-H520
Second: NCI-H2126
The relative viability of the first is higher: 0.982 for the first, 0.84 for the second.

Going from EMC-BAC-2 to NCI-H2085, the relative viability rises from 1.15 to 1.29.

First: Calu-6
Second: HCC-366
The relative viability of the first is lower: 0.748 for the first, 0.975 for the second.

First: NCI-H1666
Second: NCI-H596
The relative viability of the first is higher: 0.979 for the first, 0.893 for the second.

Compared with LK-2, NCI-H2087 is higher in relative viability: 0.877 for the first, 1.14 for the second.

First: SK-MES-1
Second: H3255
The relative viability of the first is higher: 1.15 for the first, 0.603 for the second.

Going from COR-L23 to COR-L 105, the relative viability falls from 0.936 to 0.805.

First: IA-LM
Second: LOU-NH91
The relative viability of the first is higher: 0.827 for the first, 0.638 for the second.

Compared with ChaGo-K-1, NCI-H2170 is higher in relative viability: 0.691 for the first, 0.773 for the second.

Going from NCI-H2405 to HOP-62, the relative viability rises from 0.863 to 0.939.

First: HCC-44
Second: A549
The relative viability of the first is lower: 0.96 for the first, 1.23 for the second.

Going from LU99A to BEN, the relative viability falls from 0.849 to 0.0585.

First: HARA
Second: NCI-H1299
The relative viability of the first is higher: 1.18 for the first, 1.04 for the second.

Cell Line NCI-H1792 has a relative viability of 0.605.

Same assay, conditions: first compound 0.1 µM

First: NCI-H727
Second: NCI-H1650
The relative viability of the first is lower: 0.321 for the first, 1.17 for the second.

Compared with EBC-1, NCI-H1703 is higher in relative viability: 0.377 for the first, 0.494 for the second.

First: NCI-H1993
Second: SW 1573
The relative viability of the first is higher: 0.912 for the first, 0.824 for the second.

Compared with NCI-H838, NCI-H520 is higher in relative viability: 1.09 for the first, 1.1 for the second.

Compared with NCI-H2126, EMC-BAC-2 is higher in relative viability: 0.874 for the first, 1.22 for the second.

Going from NCI-H2085 to Calu-6, the relative viability falls from 1.21 to 0.852.

Compared with HCC-366, NCI-H1666 is higher in relative viability: 0.972 for the first, 0.99 for the second.

Compared with NCI-H596, LK-2 is lower in relative viability: 0.9 for the first, 0.811 for the second.

First: NCI-H2087
Second: SK-MES-1
The relative viability of the first is lower: 0.997 for the first, 1.23 for the second.

Compared with H3255, COR-L23 is higher in relative viability: 0.544 for the first, 1.08 for the second.

Going from COR-L 105 to IA-LM, the relative viability falls from 0.853 to 0.737.

Going from LOU-NH91 to ChaGo-K-1, the relative viability rises from 0.741 to 0.862.

First: NCI-H2170
Second: NCI-H2405
The relative viability of the first is lower: 0.545 for the first, 0.856 for the second.

Going from HOP-62 to HCC-44, the relative viability falls from 1.07 to 0.994.

Going from A549 to LU99A, the relative viability falls from 1.17 to 0.75.

Going from BEN to HARA, the relative viability rises from 0.0627 to 1.21.

Going from NCI-H1299 to NCI-H1792, the relative viability falls from 1.06 to 0.584.

Same assay, conditions: first compound 0.3162 µM

Going from NCI-H727 to NCI-H1650, the relative viability rises from 0.52 to 1.44.

First: EBC-1
Second: NCI-H1703
The relative viability of the first is higher: 0.47 for the first, 0.299 for the second.

Going from NCI-H1993 to SW 1573, the relative viability rises from 0.921 to 1.1.

Compared with NCI-H838, NCI-H520 is lower in relative viability: 1.25 for the first, 1.03 for the second.

Compared with NCI-H2126, EMC-BAC-2 is higher in relative viability: 0.878 for the first, 1.19 for the second.

Compared with NCI-H2085, Calu-6 is lower in relative viability: 1.13 for the first, 0.758 for the second.

Compared with HCC-366, NCI-H1666 is higher in relative viability: 0.998 for the first, 1.05 for the second.

Going from NCI-H596 to LK-2, the relative viability rises from 0.879 to 0.911.

Going from NCI-H2087 to SK-MES-1, the relative viability rises from 0.902 to 1.24.

Going from H3255 to COR-L23, the relative viability rises from 0.506 to 1.06.

Compared with COR-L 105, IA-LM is lower in relative viability: 0.818 for the first, 0.673 for the second.

Compared with LOU-NH91, ChaGo-K-1 is higher in relative viability: 0.703 for the first, 1.03 for the second.

First: NCI-H2170
Second: NCI-H2405
The relative viability of the first is lower: 0.676 for the first, 0.892 for the second.

Going from HOP-62 to HCC-44, the relative viability falls from 1.15 to 1.04.

Compared with A549, LU99A is lower in relative viability: 1.34 for the first, 0.798 for the second.

Going from BEN to HARA, the relative viability rises from 0.0938 to 1.2.

Compared with NCI-H1299, NCI-H1792 is lower in relative viability: 1.11 for the first, 0.578 for the second.

Same assay, conditions: first compound 1 µM

Going from NCI-H727 to NCI-H1650, the relative viability rises from 0.446 to 1.23.

Compared with EBC-1, NCI-H1703 is lower in relative viability: 0.417 for the first, 0.27 for the second.

Going from NCI-H1993 to SW 1573, the relative viability rises from 0.802 to 1.06.

Going from NCI-H838 to NCI-H520, the relative viability falls from 1.14 to 1.04.

First: NCI-H2126
Second: EMC-BAC-2
The relative viability of the first is lower: 0.813 for the first, 1.13 for the second.

Going from NCI-H2085 to Calu-6, the relative viability falls from 1.12 to 0.76.

Going from HCC-366 to NCI-H1666, the relative viability falls from 1.19 to 0.88.

First: NCI-H596
Second: LK-2
The relative viability of the first is higher: 1.1 for the first, 0.894 for the second.

First: NCI-H2087
Second: SK-MES-1
The relative viability of the first is lower: 1.03 for the first, 1.21 for the second.
